In ChEMBL document CHEMBL1124471, “Design and synthesis of inhibitors of N8-acetylspermidine deacetylase” (J Med Chem, 1989):

System: N8-acetylspermidine deacetylase (Rattus norvegicus)
Assay: Inhibition of [acetyl-3H]-N8-Acetylspermidine deacetylase; NI = No inhibition; call rule not given here

COC(=O)NCCCCCCN
Ki app: Not Active
